In ChEMBL document CHEMBL4673296 (J Med Chem, 2020):
Active and inactive are the calls of the source. No cut-off for these calls is given here.

Assays:
[1] = target: T1, Serine/threonine-protein kinase ULK2 (Homo sapiens, UniProt Q8IYT8); assay: Inhibition of recombinant human ULK2 (1 to 478 residues) expressed in Sf9 cells using myelin basic protein as substrate by ADP-glo assay
T1 sequence (Q8IYT8 whole entry): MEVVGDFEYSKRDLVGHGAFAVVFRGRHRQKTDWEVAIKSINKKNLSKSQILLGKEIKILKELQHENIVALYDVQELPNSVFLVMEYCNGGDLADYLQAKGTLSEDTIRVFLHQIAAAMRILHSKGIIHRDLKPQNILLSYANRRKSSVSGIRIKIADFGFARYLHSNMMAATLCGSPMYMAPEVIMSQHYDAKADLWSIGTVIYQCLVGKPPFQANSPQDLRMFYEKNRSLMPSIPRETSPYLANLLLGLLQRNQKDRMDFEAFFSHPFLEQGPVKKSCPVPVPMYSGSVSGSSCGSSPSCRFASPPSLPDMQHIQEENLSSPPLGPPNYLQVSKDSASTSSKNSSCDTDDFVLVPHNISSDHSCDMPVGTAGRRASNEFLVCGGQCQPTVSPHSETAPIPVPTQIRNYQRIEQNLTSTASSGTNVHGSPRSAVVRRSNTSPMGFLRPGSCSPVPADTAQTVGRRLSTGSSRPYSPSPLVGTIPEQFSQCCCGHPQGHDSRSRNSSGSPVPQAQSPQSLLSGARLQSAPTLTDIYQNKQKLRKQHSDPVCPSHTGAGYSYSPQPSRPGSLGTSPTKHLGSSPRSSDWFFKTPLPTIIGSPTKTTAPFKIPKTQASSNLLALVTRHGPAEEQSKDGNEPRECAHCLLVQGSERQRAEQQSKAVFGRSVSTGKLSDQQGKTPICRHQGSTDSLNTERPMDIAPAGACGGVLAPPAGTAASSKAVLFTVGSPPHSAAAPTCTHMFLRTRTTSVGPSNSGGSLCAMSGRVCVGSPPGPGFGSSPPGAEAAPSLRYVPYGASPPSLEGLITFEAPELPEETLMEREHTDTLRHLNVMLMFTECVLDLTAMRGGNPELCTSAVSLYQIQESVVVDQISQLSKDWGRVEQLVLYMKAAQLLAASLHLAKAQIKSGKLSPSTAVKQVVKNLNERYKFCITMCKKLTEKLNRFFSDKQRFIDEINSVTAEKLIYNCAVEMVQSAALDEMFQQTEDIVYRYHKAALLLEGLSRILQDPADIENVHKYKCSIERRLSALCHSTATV

[2] = Apparent permeability of the compound across apical side to basolateral side in human Caco2 cells; assay type: ADME, cell-based; details: Caco-2
[3] = Apparent permeability of the compound across basolateral side to apical side in human Caco2 cells; assay type: ADME, cell-based; details: Caco-2
[4] = Cmax in C57BL/6J mouse at 30 mg/kg, po measured upto 24 hrs by LC-MS/MS analysis; assay type: ADME, organism-based; design: route oral, dose 30 mg/kg, time <=24; details: in vivo
[5] = AUC (0 to t) in C57BL/6J mouse at 30 mg/kg, po measured upto 24 hrs by LC-MS/MS analysis; assay type: ADME, organism-based; design: dose 30 mg/kg, time <=24; details: in vivo
[6] = test system: Mus musculus; assay: Ex vivo inhibition of ULK1 in liver lysate of C57BL/6J mouse assessed as decrease in pATG13 (Ser318) levels at 10 mg/kg, po measured after 2 hrs by Western blot analysis; assay type: functional, organism-based
[7] = test system: MDA-MB-468; assay: Induction of apoptosis in human MDA-MB-468 cells assessed as viable cells at 10 uM measured after 18 hrs in normal growth media by AnnexinV/7-AAD staining based flow cytometric analysis (reference value: 87.4%); assay type: functional; details: read-out: Activity
[8] = test system: MDA-MB-468; assay: Induction of apoptosis in human MDA-MB-468 cells assessed as early apoptotic cells at 10 uM measured after 18 hrs in normal growth media by AnnexinV/7-AAD staining based flow cytometric analysis (reference value: 5.6%); assay type: functional
[9] = test system: MDA-MB-468; assay: Induction of apoptosis in human MDA-MB-468 cells assessed as early apoptotic cells at 10 uM measured after 18 hrs in low-glucose, amino acid-free Earles balanced salt solution (EBSS) media by AnnexinV/7-AAD staining based flow cytometric analysis (reference value: 5.6%); assay type: functional
[10] = test system: MDA-MB-468; assay: Induction of apoptosis in human MDA-MB-468 cells assessed as late apoptotic cells at 10 uM measured after 18 hrs in low-glucose, amino acid-free Earles balanced salt solution (EBSS) media by AnnexinV/7-AAD staining based flow cytometric analysis (reference value: 7.6%); assay type: functional
[11] = Inhibition of starvation-induced autophagic flux in human MDA-MB-468 cells expressing tandem-labelled mCherryEGFP-LC3 chimeric protein at 10 uM measured after 18 hrs in EBSS media by flow cytometry (Rvb >90%); assay type: functional
[12] = test system: MDA-MB-468; assay: Inhibition of olaparib-induced autophagic flux in human MDA-MB-468 cells expressing tandem-labelled mCherryEGFP-LC3 chimeric protein at 10 uM measured after 48 hrs by flow cytometry; assay type: functional, cell-based
[13] = test system: MDA-MB-468; assay: cells; details: Homo sapiens, MDA-MB-468, 72 h
Description: Cytotoxicity against human MDA-MB-468 cells measured after 72 hrs by Celltiter-Glo assay

Question: For `COc1ccc(Nc2ncc(C(F)(F)F)c(NC3CC3)n2)cc1OC`, which IC50 [1] is on record?
Answer: Its IC50 is 476 nM.

Question: And the Papp A→B [2]?
Answer: The Papp A→B was greater than 10 ×10⁻⁶ cm/s.

Question: And the Papp B→A [3]?
Answer: Its Papp B→A is greater than 10 ×10⁻⁶ cm/s.

Question: What about the Cmax [4] of the same compound?
Answer: Its Cmax is 990 nM.

Question: What about the AUC(0-t) at 24 h [5] of the same compound?
Answer: Its AUC(0-t) at 24 h is 2.3 µM·h.

Question: What about the inhibition [6] of the same compound?
Answer: The inhibition was “Active”.

Question: And the viability at 10 µM [7]?
Answer: Its viability at 10 µM is 64.1%.

Question: What about the Activity [8] of the same compound?
Answer: The Activity was 28.9%.

Question: And the Activity [9]?
Answer: Its Activity is 42.9%.

Question: What about the Activity [10] of the same compound?
Answer: The Activity was 18.4%.

Question: What about the inhibition at 10 µM [11] of the same compound?
Answer: The inhibition at 10 µM was 60%.

Question: What about the inhibition [12] of the same compound?
Answer: Its inhibition is “Active”.

Question: What about the IC50 [13] of the same compound?
Answer: The IC50 was 300 nM.
